# Source: patent US20250255867A1 (Kadmon Corporation, LLC, priority 2022, published 2025)
# Settings: Cohort 3 400 mg QD
# Method: All responses were assessed by the investigators.
# Reported Adverse Events. […] All-cause mortality data collected during the study were assessed for all enrolled participants. Disease progression related death was not reported as AE.
# Number of Participants With Treatment-emergent Adverse Events (TEAEs), and Treatment-emergent Serious Adverse Events (TESAEs). […] TEAEs included both SAEs and non-SAEs. […] Analysis was performed on safety population which included all participants who received at least 1 dose of study medication.
smiles,measurement,value
"CC(C)NC(=O)COc1cccc(-c2nc(Nc3ccc4[nH]ncc4c3)c3ccccc3n2)c1 [Belumosudil, 2-{3-[4-(1H-indazol-5-ylamino)-2-quinazolinyl]phenoxy}-N-(propan-2-yl) acetamide]",Blood loss anaemia: # Events,0
same,Blood loss anaemia: Affected/At Risk,0/21
same,Blood loss anaemia: Affected/At Risk (%),(0%)
same,Bronchial secretion retention: # Events,0
same,Bronchial secretion retention: Affected/At Risk,0/21
same,Bronchial secretion retention: Affected/At Risk (%),(0%)
same,Bronchitis: # Events,1
same,Bronchitis: Affected/At Risk,1/21
same,Bronchitis: Affected/At Risk (%),(4.76%)
same,Bronchoscopy: # Events,0
same,Bronchoscopy: Affected/At Risk,0/21
same,Bronchoscopy: Affected/At Risk (%),(0%)
same,Catheter site haemorrhage: # Events,0
same,Catheter site haemorrhage: Affected/At Risk,0/21
same,Catheter site haemorrhage: Affected/At Risk (%),(0%)
same,Chills: # Events,0
same,Chills: Affected/At Risk,0/21
same,Chills: Affected/At Risk (%),(0%)
same,Chronic kidney disease: # Events,0
same,Chronic kidney disease: Affected/At Risk,0/21
same,Chronic kidney disease: Affected/At Risk (%),(0%)
same,Conjunctival haemorrhage: # Events,1
same,Conjunctival haemorrhage: Affected/At Risk,1/21
same,Conjunctival haemorrhage: Affected/At Risk (%),(4.76%)
same,Conjunctivitis: # Events,3
same,Conjunctivitis: Affected/At Risk,3/21
same,Conjunctivitis: Affected/At Risk (%),(14.29%)
same,Constipation: # Events,4
same,Constipation: Affected/At Risk,3/21
same,Constipation: Affected/At Risk (%),(14.29%)
same,Contrast media allergy: # Events,0
same,Contrast media allergy: Affected/At Risk,0/21
same,Contrast media allergy: Affected/At Risk (%),(0%)
same,Contusion: # Events,4
same,Contusion: Affected/At Risk,3/21
same,Contusion: Affected/At Risk (%),(14.29%)
same,Corneal abrasion: # Events,0
same,Corneal abrasion: Affected/At Risk,0/21
same,Corneal abrasion: Affected/At Risk (%),(0%)
same,Corneal infection: # Events,0
same,Corneal infection: Affected/At Risk,0/21
same,Corneal infection: Affected/At Risk (%),(0%)
same,Cough: # Events,9
same,Cough: Affected/At Risk,7/21
same,Cough: Affected/At Risk (%),(33.33%)
same,Decreased appetite: # Events,4
same,Decreased appetite: Affected/At Risk,4/21
same,Decreased appetite: Affected/At Risk (%),(19.05%)
same,Dehydration: # Events,2
same,Dehydration: Affected/At Risk,2/21
same,Dehydration: Affected/At Risk (%),(9.52%)
same,Depression: # Events,3
same,Depression: Affected/At Risk,3/21
same,Depression: Affected/At Risk (%),(14.29%)
same,Diarrhoea: # Events,11
same,Diarrhoea: Affected/At Risk,7/21
same,Diarrhoea: Affected/At Risk (%),(33.33%)
same,Dizziness: # Events,2
same,Dizziness: Affected/At Risk,2/21
same,Dizziness: Affected/At Risk (%),(9.52%)
same,Drug eruption: # Events,0
same,Drug eruption: Affected/At Risk,0/21
same,Drug eruption: Affected/At Risk (%),(0%)
same,Dry eye: # Events,2
same,Dry eye: Affected/At Risk,2/21
same,Dry eye: Affected/At Risk (%),(9.52%)
same,Dry skin: # Events,1
same,Dry skin: Affected/At Risk,1/21
same,Dry skin: Affected/At Risk (%),(4.76%)
same,Dyspepsia: # Events,1
same,Dyspepsia: Affected/At Risk,1/21
same,Dyspepsia: Affected/At Risk (%),(4.76%)
same,Dysphagia: # Events,3
same,Dysphagia: Affected/At Risk,2/21
same,Dysphagia: Affected/At Risk (%),(9.52%)
same,Dyspnoea exertional: # Events,0
same,Dyspnoea exertional: Affected/At Risk,0/21
same,Dyspnoea exertional: Affected/At Risk (%),(0%)
same,Dyspnoea: # Events,6
same,Dyspnoea: Affected/At Risk,6/21
same,Dyspnoea: Affected/At Risk (%),(28.57%)
same,Embolism: # Events,1
same,Embolism: Affected/At Risk,1/21
same,Embolism: Affected/At Risk (%),(4.76%)
same,Enamel anomaly: # Events,0
same,Enamel anomaly: Affected/At Risk,0/21
same,Enamel anomaly: Affected/At Risk (%),(0%)
same,Epidural lipomatosis: # Events,0
same,Epidural lipomatosis: Affected/At Risk,0/21
same,Epidural lipomatosis: Affected/At Risk (%),(0%)
same,Epstein-Barr virus infection: # Events,0
same,Epstein-Barr virus infection: Affected/At Risk,0/21
same,Epstein-Barr virus infection: Affected/At Risk (%),(0%)
same,Erectile dysfunction: # Events,0
same,Erectile dysfunction: Affected/At Risk,0/21
same,Erectile dysfunction: Affected/At Risk (%),(0%)
same,Eye irritation: # Events,0
same,Eye irritation: Affected/At Risk,0/21
same,Eye irritation: Affected/At Risk (%),(0%)
same,Eye pain: # Events,0
same,Eye pain: Affected/At Risk,0/21
same,Eye pain: Affected/At Risk (%),(0%)
same,Eye pruritus: # Events,0
same,Eye pruritus: Affected/At Risk,0/21
same,Eye pruritus: Affected/At Risk (%),(0%)
same,Fall: # Events,1
same,Fall: Affected/At Risk,1/21
same,Fall: Affected/At Risk (%),(4.76%)
same,Fatigue: # Events,14
same,Fatigue: Affected/At Risk,10/21
same,Fatigue: Affected/At Risk (%),(47.62%)
same,Flatulence: # Events,1
same,Flatulence: Affected/At Risk,1/21
same,Flatulence: Affected/At Risk (%),(4.76%)
same,Flushing: # Events,0
same,Flushing: Affected/At Risk,0/21
same,Flushing: Affected/At Risk (%),(0%)
same,Fungal infection: # Events,0
same,Fungal infection: Affected/At Risk,0/21
same,Fungal infection: Affected/At Risk (%),(0%)
same,Gamma-glutamyltransferase increased: # Events,0
same,Gamma-glutamyltransferase increased: Affected/At Risk,0/21
same,Gamma-glutamyltransferase increased: Affected/At Risk (%),(0%)
same,Gastric ulcer: # Events,0
same,Gastric ulcer: Affected/At Risk,0/21
same,Gastric ulcer: Affected/At Risk (%),(0%)
same,Gastrooesophageal reflux disease: # Events,2
same,Gastrooesophageal reflux disease: Affected/At Risk,2/21
same,Gastrooesophageal reflux disease: Affected/At Risk (%),(9.52%)
same,Generalised oedema: # Events,1
same,Generalised oedema: Affected/At Risk,1/21
same,Generalised oedema: Affected/At Risk (%),(4.76%)
same,Genital infection fungal: # Events,0
same,Genital infection fungal: Affected/At Risk,0/21
same,Genital infection fungal: Affected/At Risk (%),(0%)
same,Glaucoma: # Events,0
same,Glaucoma: Affected/At Risk,0/21
